Laboratory results from paper PMC6345774, “Kinetic and thermodynamic effects of phosphorylation on p53 binding to MDM2” (Scientific Reports, 2019).

Key:
[1] = Far-UV CD of isolated peptides in aqueous solution (helicity); type: physicochemical; conditions: 5 °C, 50 mM phosphate pH 6.8; for molar ellipticity at 222 nm, [Θ]222: far-UV CD; for % Helix in water ([Θ]222): from molar ellipticity at 222 nm assuming 100% helix = −31500 deg cm^2 dmol^−1
Procedure: Spectra were acquired on a Jasco J815 spectropolarimeter (Jasco, Japan) interfaced with a Peltier unit. The instrument was periodically calibrated with (+) 10-camphorsulphonic acid. Far-UV measurements (in aqueous or TFE solutions) were performed in 0.1-cm-pathlength quartz cells (Hellma), with a response time of 2 s, a band width of 1 nm, data were collected every 0.2 nm, and a scan velocity of 50 nm/min (or 20 nm/min). […] In all peptides, two concentrations (10 μM and 70 μM) in aqueous solutions (50 mM sodium phosphate buffer, pH 6.8 […]) were used to determine whether either the shapes or the intensities of the spectra were concentration-dependent. […] In all cases (aqueous solution or TFE titrations), the corresponding blank solutions (containing only buffer, or buffer and the corresponding amount of TFE) were subtracted from the spectra.
(§1) For the TFE titrations, a peptide concentration of 40 μM was used. The samples were prepared the day before and left overnight at 5 °C to reach equilibrium. The experiments in aqueous solution were acquired at 5 °C, in 50 mM sodium phosphate buffer, pH 6.8. Raw ellipticity was converted to molar ellipiticity, [Θ], from which the percentage of helical populations was determined. Co-solvent concentrations were indicated in percentage of volume. […] Fitting of the titration curves, obtained by observation of the molar ellipticity at 222 nm as the TFE concentration was increased, was carried out with Kaleidagraph (Synergy software).

[2] = target: T1, human MDM2 (residues 2–125) (Homo sapiens, UniProt Q00987); assay: Isothermal titration calorimetry of p53-peptide binding to MDM2; conditions: ITC, 15 °C, 50 mM Tris-HCl pH 8.0, 250 mM NaCl, 0.5 mM TCEP; for ΔH of binding / Kd: peptide titrated into MDM2; for ΔH of binding: repeated twice; for Kd: read-out: Log KA (converted)
T1 construct: human MDM2 (residues 2–125); made in house; host or cells: E. coli BL21 (DE3)
Procedure: Protein concentration was determined from the absorbance of its seven Tyr residues.
Peptide binding to MDM2 was measured by using an Auto-iTC200 (Malvern Instruments, Malvern UK), as described[24],[37]. Data acquisition was carried out with a reference power of 10 µcal/s, initial delay of 60 s, spacing between injections of 150 s. In a typical ITC experiment, the p53 peptide was loaded into a 40 μl syringe and the protein was placed into the sample cell. The sequence of injections consisted of one 0.5 μl injection followed by 19 injections of 2 μl each. Control experiments loading peptide into buffer solution were also carried out for each peptide. Experiments were performed with freshly prepared protein solutions, at 15 °C in the same buffer used in fluorescence experiments. ITC experiments were performed at 15 °C rather than 25 °C to avoid aggregation of MDM2.
Each peak was integrated using NITPIC software. The areas of the peaks are related to the heat exchanged upon binding and/or dilution. This heat was corrected of the heat of dilution (i.e., the average heat of the injections after the equilibrium has reached the saturation). Titration with each peptide was repeated twice.

[3] = TFE titrations monitored by CD (helical population); type: physicochemical; conditions: 5 °C, 50 mM phosphate pH 6.8, peptide 40 μM; for [TFE]1/2 (midpoint of TFE titration) / m (m-value of TFE titration): CD at 222 nm, two-state fit, ± fitting error; for % Helix in water (from ΔG in TFE titrations): from ΔG = [TFE]1/2 × m, for 1% values the error was 10%
Procedure: Unlike the above programs, which make assumptions about how the ellipticity signal relates to secondary structure content, a TFE titration allows the determination of helical content derived from the free-energy change for the equilibrium between folded (in TFE) and unfolded peptide, without any such assumptions.
as §1

[4] = target: T1, human MDM2 (residues 2–125); assay: Stopped-flow fluorescence kinetics of p53-peptide binding to MDM2; conditions: 15 °C; for kon / koff: stopped-flow Trp fluorescence, 50 mM Tris-HCl pH 8.0, 250 mM NaCl, 0.5 mM TCEP, peptide 0.125 μM, ± fitting error; for kon: MDM2 1–3 μM, pseudo-first order, slope, read-out: kon 10^6; for koff: y-axis intercept of pseudo-first-order plot
Procedure: Expression and purification of human MDM2 (residues 2–125) was carried out as described[23] in BL21 (DE3) cells. […] Protein concentration was determined from the absorbance of its seven Tyr residues.
The kinetics of the MDM2/p53-peptide interaction was measured at 15 °C using an Applied Photophysics stopped-flow fluorimeter in the same buffer as that used in the equilibrium fluorescence experiments. The experimental procedure has been described previously. Association kinetics was measured under pseudo-first order conditions, by keeping the MDM2 concentration in excess of that of the peptide. […] Excitation wavelength was 280 nm with a cut-off filter of 315 nm on the emission side. The slit widths were 10 nm for excitation and emission.
At each MDM2 concentration a minimum of six traces were acquired; and the fitting in all cases for all peptides was carried out with the averaging of at least four traces. The averaged trace was always fitted to a single exponential function, which yielded, kobs. Fitting to a single exponential curve was carried out by using Kaleidagraph (Synergy Software); reported errors in kobs are from the exponential fitting. The dissociation (koff) and association (kon) rate constants were obtained from the straight line: kobs=kon×[MDM2]+koff.
Errors in both rates were from the linear fitting; the errors were always larger for koff due to the extrapolation to the y-axis intercept.

[5] = target: T2, human MDM2 (residues 2–125) (human, UniProt Q00987 2-125); assay: ITC; p53 peptide in the syringe titrated into MDM2 in the cell; Auto-iTC200; 15 °C; 50 mM Tris-HCl pH 8.0, 250 mM NaCl, 0.5 mM TCEP; conditions: both partners purified
T2 construct: MDM2 (murine double minute 2), human, N-terminal domain, residues 2-125; no tag is named; also called N-terminal domain of MDM2
T2 sequence (Q00987 2-125): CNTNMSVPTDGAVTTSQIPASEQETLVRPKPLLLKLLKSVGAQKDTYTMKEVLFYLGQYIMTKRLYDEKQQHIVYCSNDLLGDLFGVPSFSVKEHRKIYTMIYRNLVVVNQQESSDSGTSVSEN

T1 sequence (Q00987 2-125): as above

| Molecule | molar ellipticity at 222 nm, [Θ]222 [1] | % Helix in water ([Θ]222) [1] | TΔS of binding [2] | ΔH of binding [2] | [TFE]1/2 (midpoint of TFE titration) [3] | m (m-value of TFE titration) [3] | % Helix in water (from ΔG in TFE titrations) [3] | kon [4] | koff [4] | other results |
| --- | --- | --- | --- | --- | --- | --- | --- | --- | --- | --- |
| CC(=O)N[C@@H](CCC(=O)O)C(=O)N[C@H](C(=O)N[C@@H](Cc1ccccc1)C(=O)N[C@@H](COP(=O)(O)O)C(=O)N[C@@H](CC(=O)O)C(=O)N[C@@H](CC(C)C)C(=O)N[C@@H](Cc1c[nH]c2ccccc12)C(=O)N[C@@H](CCCCN)C(=O)N[C@@H](CC(C)C)C(=O)N[C@@H](CC(C)C)C(=O)N1CCC[C@H]1C(=O)N[C@@H](CCC(=O)O)C(=O)N[C@@H](CC(N)=O)C(N)=O)[C@@H](C)O [P53-pS] | −4614 deg cm^2 dmol^−1 | 14.6% | – | – | – | – | – | – | – | – |
| CC(=O)N[C@@H](CCC(=O)O)C(=O)N[C@@H](CC(=O)O)C(=O)N[C@@H](Cc1ccccc1)C(=O)N[C@@H](CC(=O)O)C(=O)N[C@@H](CC(=O)O)C(=O)N[C@@H](CC(C)C)C(=O)N[C@@H](Cc1c[nH]c2ccccc12)C(=O)N[C@@H](CCCCN)C(=O)N[C@@H](CC(C)C)C(=O)N[C@@H](CC(C)C)C(=O)N1CCC[C@H]1C(=O)N[C@@H](CCC(=O)O)C(=O)N[C@@H](CC(N)=O)C(N)=O [P53-D18-D20] | −2811 deg cm^2 dmol^−1 | 9% | -3.96 kcal/mol | -9.95 kcal/mol | 9.8 ± 0.8 % (vol:vol) | 263 ± 47 cal mol^−1(%)^−1 | 1% | – | – | – |
| CC(=O)N[C@@H](CCC(=O)O)C(=O)N[C@H](C(=O)N[C@@H](Cc1ccccc1)C(=O)N[C@@H](COP(=O)(O)O)C(=O)N[C@@H](CC(=O)O)C(=O)N[C@@H](CC(C)C)C(=O)N[C@@H](Cc1c[nH]c2ccccc12)C(=O)N[C@@H](CCCCN)C(=O)N[C@@H](CC(C)C)C(=O)N[C@@H](CC(C)C)C(=O)N1CCC[C@H]1C(=O)N[C@@H](CCC(=O)O)C(=O)N[C@@H](CC(N)=O)C(N)=O)[C@@H](C)OP(=O)(O)O [P53-pTpS] | −2547 deg cm^2 dmol^−1 | 8.1% | – | – | – | – | – | – | – | – |
| CC(=O)N[C@@H](CCC(=O)O)C(=O)N[C@@H](CC(=O)O)C(=O)N[C@@H](Cc1ccccc1)C(=O)N[C@@H](CCC(=O)O)C(=O)N[C@@H](CC(=O)O)C(=O)N[C@@H](CC(C)C)C(=O)N[C@@H](Cc1c[nH]c2ccccc12)C(=O)N[C@@H](CCCCN)C(=O)N[C@@H](CC(C)C)C(=O)N[C@@H](CC(C)C)C(=O)N1CCC[C@H]1C(=O)N[C@@H](CCC(=O)O)C(=O)N[C@@H](CC(N)=O)C(N)=O [P53-D18-E20] | −3597 deg cm^2 dmol^−1 | 11.4% | -3.03 kcal/mol | -9.90 kcal/mol | 33 ± 5 % (vol:vol) | 112 ± 70 cal mol^−1(%)^−1 | 1% | – | – | Kd [2]: 5.89 µM |
| Ac-EEFEDLWKLLPEN-NH2 [P53-E18-E20] | −2757 deg cm^2 dmol^−1 | 8.7% | -2.16 kcal/mol | -9.12 kcal/mol | 24.5 ± 0.9 % (vol:vol) | 420 ± 390 cal mol^−1(%)^−1 | 1% | 2.7e+06 ± 900000 M⁻¹ s⁻¹ | 17 ± 2 s⁻¹ | Kd [2]: 5.01 µM |
| CC(=O)N[C@@H](CCC(=O)O)C(=O)N[C@@H](CCC(=O)O)C(=O)N[C@@H](Cc1ccccc1)C(=O)N[C@@H](CO)C(=O)N[C@@H](CC(=O)O)C(=O)N[C@@H](CC(C)C)C(=O)N[C@@H](Cc1c[nH]c2ccccc12)C(=O)N[C@@H](CCCCN)C(=O)N[C@@H](CC(C)C)C(=O)N[C@@H](CC(C)C)C(=O)N1CCC[C@H]1C(=O)N[C@@H](CCC(=O)O)C(=O)N[C@@H](CC(N)=O)C(N)=O [P53-E18] | −2380 deg cm^2 dmol^−1 | 7.5% | -0.26 kcal/mol | -7.02 kcal/mol | 14 ± 5 % (vol:vol) | 103 ± 42 cal mol^−1(%)^−1 | 7 ± 1% | 3.8e+06 ± 700000 M⁻¹ s⁻¹ | 16 ± 2 s⁻¹ | Kd [2]: 7.08 µM |
| Ac-EEFDDLWKLLPEN-NH2 [P53-E18-D20] | −2100 deg cm^2 dmol^−1 | 6.6% | -2.64 kcal/mol | -8.80 kcal/mol | 15 ± 1 % (vol:vol) | 135 ± 18 cal mol^−1(%)^−1 | 3 ± 1% | 4e+06 ± 2e+06 M⁻¹ s⁻¹ | 18 ± 6 s⁻¹ | – |
| CC(=O)N[C@@H](CCC(=O)O)C(=O)N[C@H](C(=O)N[C@@H](Cc1ccccc1)C(=O)N[C@@H](CC(=O)O)C(=O)N[C@@H](CC(=O)O)C(=O)N[C@@H](CC(C)C)C(=O)N[C@@H](Cc1c[nH]c2ccccc12)C(=O)N[C@@H](CCCCN)C(=O)N[C@@H](CC(C)C)C(=O)N[C@@H](CC(C)C)C(=O)N1CCC[C@H]1C(=O)N[C@@H](CCC(=O)O)C(=O)N[C@@H](CC(N)=O)C(N)=O)[C@@H](C)O [P53-D20] | −2811 deg cm^2 dmol^−1 | 9% | – | – | – | – | – | 9.5e+06 ± 900000 M⁻¹ s⁻¹ | 7 ± 2 s⁻¹ | Kd ([4]; ratio of kinetic rate constants, assuming two-state binding without intermediates, read-out: Kd (koff/kon)): 0.7 ± 0.2 µM |
| Ac-EeFdDLWeeLPEN-NH2 [P53-E18-D20-E24-E25, p53 Glu17-Asn29 peptide with phosphomimetics at Thr18 and Ser20 and Lys24, Leu25 mutated to Glu] | 142.7 deg cm^2 dmol^−1 | 0% | – | – | – | – | – | – | – | binding to MDM2 in stopped-flow kinetics ([4]; no exponential behaviour in any trace at any MDM2 concentration tested): did not show any evidence of binding |
| Ac-EDFSDLWKLLPEN-NH2 [Ac-EdFSDLWKLLPEN-NH2 (P53-D18)] | – | – | – | – | – | – | – | – | – | Kd [5]: 19 µM; Log KA [5]: 4.72; dH [5]: -18.4 kcal/mol |
| Ac-EDFDDLWKLLPEN-NH2 [Ac-EdFdDLWKLLPEN-NH2 (P53-D18-D20)] | – | – | – | – | – | – | – | – | – | dH [5]: -9.95 kcal/mol |
| Ac-EDFEDLWKLLPEN-NH2 [Ac-EdFeDLWKLLPEN-NH2 (P53-D18-E20)] | – | – | – | – | – | – | – | – | – | dH [5]: -9.9 kcal/mol |
